{
  "source": "patent US20230002446A1",
  "about": "“ANTI-INFLAMMATORY AGENTS” (The University of Sydney, priority 2019, published 2023)",
  "key": {"[1]": {"tested_on": "C57BL/6 mice", "assay": "contact hypersensitivity model (DNFB-induced contact dermatitis)", "assay_type": "in vivo", "procedure": "FIG. 2—Peptide administration reduces inflammation in a mouse model of contact dermatitis and reduces myeloid inflammatory infiltrate. (A) Experimental outline of DNFB-induced contact dermatitis. (B) Ear thickness of peptide RP23 (SEQ ID NO:12) treated mice, repeated 3 times. […] Data are presented as mean±S.E.M. Statistical significance was determined (B) by multiple t tests (C) by ANOVA with Dunnett's multiple comparison test, *p<0.05, **p<0.01, ***p<0.001.\nFIG. 3—The peptide effect is dependent on the peptide sequence and dose. (A) PBS, scrambled peptide or peptide MUC1SP ([…]; SEQ ID NO: 3) was injected subcutaneously seven days prior to sensitising C57BL/6 mice (n=5) with DNFB on the abdomen. […] (B) A comparison of the immunosuppressive effect of peptide RP23 (SEQ ID NO:12) and MUC1SP (SEQ ID NO: 3). (C) SEQ ID NO:12 suppressed immunity in a dose dependent manner. (D) Addition of GM-CSF to the SEQ ID NO:12 injection abrogated the immune suppression. Data are the means±S.E.M.\nFIG. 8—Effects of peptide variants on the inflammatory response. Mice received one injection of PBS or one of the following peptides (10 nmol) subcutaneously at the abdomen (A) peptide RP23 (SEQ ID NO: 12), peptide AF594-RP23 (SEQ ID NO: 21), peptide K4-G3-MUC1SP (SEQ ID NO:22) or MUC1SP C fragment (SEQ ID NO: 2). Five days later, mice were challenged with DNFB at a distal site, on the ears. The thickness of the ears was measured over 72 hours.\nFIG. 9—Effects of further peptide variants, without N-terminal methionine, on the inflammatory response in a model of contact dermatitis. Mice received one injection of PBS, RP23 (SEQ ID NO:12) (10 nmol) or one of the peptide variants indicated in the table including SEQ ID NO: 32 and 35 as described herein (equivalent molar amount of RP23), subcutaneously at the abdomen. Photoleucine replaces leucine where indicated, these molecules used for photo-crosslinking studies. Seven days later, abdominal skin was sensitised with a contact irritant (DNFB) and five days later, mice were challenged with DNFB at a distal site, on the ears. (A) Specific increase in ear thickness over 72 hours, data are the means+/−SEM (n=6). Statistical significance was determined by ANOVA with Dunnett's multiple comparison test to PBS only control, **p<0.01. (B) Specific increase in ear thickness at 24 hours post-challenge. Data are the means+/−SEM (n=6). Statistical significance was determined by t-test to relevant control, as indicated, *p<0.05, **p<0.01, ns=not significant.\nThe abdomens of 8-week old female C57BL/6 mice (Australian BioResources) were coarse shaved. A minimum of 24 hours later, RP23 (SEQ ID NO:12) was delivered via sub-cutaneous injection at the abdomen in 50 μl phosphate buffered saline. Seven days later, mice were topically sensitised to 1-fluoro-2,4-dinitrobenzene (DNFB, 0.5 vol %) in olive oil/acetone (1:4, v/v, 30 μl) via application to the shaved abdomen. Five days after sensitisation, mice were challenged on the ears with topical DNFB (0.25 vol %) in olive oil/acetone (1:4, v/v, 15 μl per ear). Ear thickness was measured daily using manual callipers from immediately before challenge, up to 96 hours post challenge. Positive controls for ear swelling consisted of mice that were injected with PBS instead of RP23. Negative or irritant controls consisted of a group of mice that received the DNFB challenge, but not the sensitisation. The average of the change in ear thickness from this control group was subtracted from the change in ear thickness of other samples to account for non-specific irritation due to the application of DNFB, olive oil and acetone.\nThe inventors then conducted additional in vivo studies, using a model of contact hypersensitivity, to determine the portion of RP23 responsible for its immunomodulatory activity. Mice received one injection of peptide (10 nmol) subcutaneously at the abdomen, seven days prior to sensitisation of the skin with a contact irritant (DNFB). […]"}, "[2]": {"tested_on": "UV13-1 tumour cells", "assay": "murine skin tumour model, peptide trialled as vaccine antigen", "assay_type": "in vivo, mice", "conditions": "5 nmol sub-cutaneous 21 and 7 days prior to transfer of UV13-1 tumour cells", "procedure": "FIG. 1—Peptide administration leads to accelerated skin tumour growth. Mice received sub-cutaneous injections of mixtures containing 5 nmol peptide RP23 (SEQ ID NO:12) (solid line), PBS or liposome controls (dotted line) 21 and 7 days prior to transfer of UV13-1 tumour cells. […] Difference in survival was analysed statistically using a log-rank test.\nThe inventors initially trialled RP23 (SEQ ID NO: 12) as a vaccine antigen in a murine skin tumour model. […] They then assessed whether RP23 could reduce inflammation in a murine model of contact dermatitis, using a contact hypersensitivity assay (FIG. 2a). […] Using RP23, the inventors carried out a dose-response assay to titrate the immune suppression. Using three doses in the low nanomole range (2, 5 or 10 nmol, about 0.3 0.8, 1.6 mg/kg), a dose-dependent reduction in ear swelling of up to 100% compared to controls was observed (FIG. 3c). […] Further, in a murine model of imiquimod-induced psoriasis (FIG. 4a), a single injection of RP23 reduced local erythema, skin thickness and scaling (FIG. 4b,c)."}, "[3]": {"tested_on": "C57BL/6 mice", "assay": "T-cell subsets by flow cytometry in imiquimod-induced psoriasis model", "assay_type": "in vivo", "procedure": "FIG. 11. RP23 treatment reduces TCRαβ^+ T-cells in the back skin and increases CD4^+ T-regulatory cells in the lymph nodes of mice in an imiquimod-induced psoriasis model. C57BL/6 female mice received PBS or RP23 injection at day −1, then Aldara cream (5% imiquimod, 57.5 mgs) was applied daily (days 0-4) to the backs to induce psoriasis. At day 15, skin and inguinal lymph nodes were analysed by flow cytometry to quantitate (A) T-cell subsets as a proportion of total leukocytes (CD45^+) in the psoriatic back skin, (B) number of CD3^+CD4^+ TCRαβ T-cells in the skin draining lymph nodes (inguinal), with transcription factor staining, to identify cells with a regulatory phenotype (FoxP3^+). Data are the means+/−SEM (n=4-5). Statistical significance was determined by multiple t-tests, *p<0.05.\nC57BL/6 female mice received PBS or RP23 injection at day −1, then Aldara cream (5% imiquimod, 57.5 mgs) was applied daily (days 0-4) to the backs of mice to induce psoriasis. At day 15, skin and inguinal lymph nodes were analysed by flow cytometry to quantitate T-cell subsets as a proportion of total leukocytes (CD45+) in the psoriatic back skin, (FIG. 11A).\nCD3+CD4+ TCRαβ T-cells in the skin draining lymph nodes (inguinal) were phenotyped by transcription factor staining and flow cytometry to identify cells with a regulatory phenotype (i.e., FoxP3+)."}},
  "note": "Where a SMILES comes first, the peptide text is derived from it. [ ]: non-standard residue; d: D form. AEEA = NCCOCCOCC(=O)O",
  "data": [
    {"smiles": "CSCC[C@H](NC(=O)COCCOCCNC(=O)[C@H](CCCCN)NC(=O)[C@H](CCCCN)NC(=O)[C@H](CCCCN)NC(=O)[C@@H](N)CCCCN)C(=O)N[C@H](C(=O)N1CCC[C@H]1C(=O)NCC(=O)N[C@H](C(=O)N[C@@H](CCC(N)=O)C(=O)N[C@@H](CO)C(=O)N1CCC[C@H]1C(=O)N[C@@H](Cc1ccccc1)C(=O)N[C@@H](Cc1ccccc1)C(=O)N[C@@H](CC(C)C)C(=O)N[C@@H](CC(C)C)C(=O)N[C@@H](CC(C)C)C(=O)N[C@@H](CC(C)C)C(=O)N[C@@H](CC(C)C)C(=O)N[C@H](C(=O)N[C@H](C(=O)N[C@@H](CC(C)C)C(=O)N[C@H](C(=O)N[C@H](C(=O)N[C@H](C(=O)O)C(C)C)C(C)C)[C@@H](C)O)C(C)C)[C@@H](C)O)[C@@H](C)O)[C@@H](C)O", "note": "[RP23] (H-KKKK[AEEA]MTPGTQSPFFLLLLLTVLTVV-OH)", "values": [
      {"measurement": "inflammatory response (ear thickness over 72 hours)", "setting": "[1]; 10 nmol subcutaneously at the abdomen, compared to PBS (FIG. 8)", "result": "led to a reduced inflammatory response"},
      {"measurement": "immune suppression compared to SEQ ID NO: 3 (MUC1SP)", "setting": "[1]; FIG. 3b", "result": "without significantly altering immune suppression"},
      {"measurement": "suppression of ear swelling with GM-CSF included", "setting": "[1]; GM-CSF added to the injection (FIG. 3d)", "result": "abrogated much of the suppression"},
      {"measurement": "reduction in ear swelling compared to controls", "setting": "[1]; dose-response, 2, 5 or 10 nmol", "result": "up to 100%"},
      {"measurement": "elicitation of inflammation (ear thickness)", "setting": "[1]; single nanomolar injection prior to sensitisation", "result": "significantly suppress elicitation of inflammation"},
      {"measurement": "inflammatory myeloid cell skin infiltrate", "setting": "[1]; single nanomolar injection prior to sensitisation, flow cytometry 72 hours post challenge", "result": "reduction"},
      {"measurement": "skin tumour growth", "setting": "[2]", "result": "modest increase in tumour growth"},
      {"measurement": "survival of tumour-bearing mice", "setting": "[2]", "result": "succumbed to their tumour earlier"},
      {"measurement": "TCRαβ+ T-cells in the skin of psoriatic mice", "setting": "[3]; FIG. 11A", "result": "reduction in TCRαβ+ T-cells"},
      {"measurement": "number of FoxP3-expressing CD3+CD4+ TCRαβ T-cells in skin draining lymph nodes", "setting": "[3]; inguinal lymph nodes, day 15, with or without T-bet or Rorγt", "result": "significant increase"},
      {"measurement": "proportion of total CD4+ and CD8+ T-cells in the back skin", "setting": "[3]; injection day -1, day 15, proportion of CD45+ leukocytes", "result": "reduced the proportion of total CD4+ and CD8+ T-cells"}
    ]}
  ]
}
